Source: paper PMC8779173, “Discovery of Cofactor Competitive Inhibitors against the Human Methyltransferase Fibrillarin” (Pharmaceuticals, 2021)

Experiments:
human fibrillarin (hFBL) [1] = target: T1, human fibrillarin (hFBL) (Homo sapiens, UniProt P22087); experiment: ITC; also SPR (Kd […]), STD NMR and crystal structure; assay type: binding
T1 construct: gene FBL; methyltransferase domain (residues 83–321)
T1 sequence (P22087 83-321): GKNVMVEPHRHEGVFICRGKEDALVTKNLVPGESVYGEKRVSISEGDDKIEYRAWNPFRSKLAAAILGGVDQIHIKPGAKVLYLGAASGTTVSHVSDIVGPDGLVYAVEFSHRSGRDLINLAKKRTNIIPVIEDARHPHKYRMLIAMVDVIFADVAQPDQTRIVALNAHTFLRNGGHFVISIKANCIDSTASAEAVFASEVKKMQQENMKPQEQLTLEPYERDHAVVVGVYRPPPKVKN

human fibrillarin (hFBL) [2] = target: T1, human fibrillarin (hFBL); experiment: biochemical; set-up: SPR binding affinity of compounds to human fibrillarin methyltransferase domain; details: SPR
Text: In addition, electron density for 1a was not observed beyond the amide linker, which appeared to be turning away from the catalytic site and pointing towards the bulk solvent. […] Indeed, the binding affinity of 1a turned out to be similar to that of 1 (Supplemental Table S3). […] Additionally, the extended piperidine ring in 2a was engaged in multiple hydrophobic interactions with residues G167, D236, and V237 with a stable chair conformation.

human fibrillarin (hFBL) [3] = target: T1, human fibrillarin (hFBL); experiment: STD NMR competition with SAM; assay type: binding
human fibrillarin (hFBL) [4] = target: T1, human fibrillarin (hFBL); experiment: crystal structure (soak; no density beyond the amide linker); STD NMR competition with SAM; SPR; assay type: binding
human fibrillarin (hFBL) [5] = target: T1, human fibrillarin (hFBL); experiment: crystal structure (soak); STD NMR competition with SAM; SPR; assay type: binding

Kd (human fibrillarin (hFBL) [2]) [µM]	Compound	STD NMR competition with SAM (human fibrillarin (hFBL) [3])	further results
33.7 ± 7.7	C[S@@+](CC[C@H](N)C(=O)[O-])C[C@H]1O[C@@H](n2cnc3c(N)ncnc32)[C@H](O)[C@@H]1O [SAM]	–	Kd (human fibrillarin (hFBL) [1]): 14 ± 0.8 µM
250 ± 20	FC(F)(F)c1cc(NC2CCOCC2)ncn1 [2b]	both 2a and 2b were shown to compete with cofactor binding by STD NMR assays	–
2700 ± 780	Nc1cc(C(F)(F)F)ncn1 [compound 2, FS-2818]	–	–
–	O=C(O)Cc1cn2nc(C(F)(F)F)cc2c(=O)[nH]1 [1e, 2-(4-Oxo-2-(trifluoromethyl)-4,5-dihydropyrazolo[1,5-a]pyrazin-6-yl)acetic acid]	a synthetic intermediate without the amino acid 1e were also shown to compete with SAM binding to hFBL	–
520 ± 40	Cc1cn2cc(C(F)(F)F)cc2c(=O)[nH]1 [compound 1, PS-6655]	–	–
510 ± 50	N[C@H](Cc1cccc(NC(=O)Cc2cn3nc(C(F)(F)F)cc3c(=O)[nH]2)c1)C(=O)O [1a, (R)-2-Amino-3-(3-(2-(4-oxo-2-(trifluoromethyl)-4,5-dihydropyrazolo[1,5-a]pyrazin-6-yl)acetamido)phenyl)propanoic acid]	–	crystal structure (soak; no density beyond the amide linker); STD NMR competitio (human fibrillarin (hFBL) [4]): complex structures were obtained for 1a (PDB code: 7SEC) and 2a (PDB code: 7SED)
3350 ± 480	N[C@@H](CCCNC(=O)Cc1cn2nc(C(F)(F)F)cc2c(=O)[nH]1)C(=O)O [1d, (S)-2-Amino-5-(2-(4-oxo-2-(trifluoromethyl)-4,5-dihydropyrazolo[1,5-a]pyrazin-6-yl)acetamido)pentanoic acid]	In addition to 1a, 1c, 1d, and a synthetic intermediate without the amino acid 1e were also shown to compete	–
43.8 ± 2.2	FC(F)(F)c1cc(NC2CCNCC2)ncn1 [2a]	–	crystal structure (soak); STD NMR competition with SAM; SPR (human fibrillarin (hFBL) [5]): complex structures were obtained for 1a (PDB code: 7SEC) and 2a (PDB code: 7SED)
2660 ± 40	N[C@@H](Cc1cccc(NC(=O)Cc2cn3nc(C(F)(F)F)cc3c(=O)[nH]2)c1)C(=O)O [1c, (S)-2-Amino-3-(3-(2-(4-oxo-2-(trifluoromethyl)-4,5-dihydropyrazolo[1,5-a]pyrazin-6-yl)acetamido)phenyl)propanoic acid]	without the amino acid 1e were also shown to compete with SAM binding to hFBL in solution by STD NMR	–
